The values that follow come from patent publication US8614234B2, “Compounds as tyrosine kinase modulators” (Allergan, Inc., priority 2009, dated 2013).

Structures are written as SMILES. pIC50: −log10 of the molar value.

Sequence of PDGFβ (P09619 33-1106): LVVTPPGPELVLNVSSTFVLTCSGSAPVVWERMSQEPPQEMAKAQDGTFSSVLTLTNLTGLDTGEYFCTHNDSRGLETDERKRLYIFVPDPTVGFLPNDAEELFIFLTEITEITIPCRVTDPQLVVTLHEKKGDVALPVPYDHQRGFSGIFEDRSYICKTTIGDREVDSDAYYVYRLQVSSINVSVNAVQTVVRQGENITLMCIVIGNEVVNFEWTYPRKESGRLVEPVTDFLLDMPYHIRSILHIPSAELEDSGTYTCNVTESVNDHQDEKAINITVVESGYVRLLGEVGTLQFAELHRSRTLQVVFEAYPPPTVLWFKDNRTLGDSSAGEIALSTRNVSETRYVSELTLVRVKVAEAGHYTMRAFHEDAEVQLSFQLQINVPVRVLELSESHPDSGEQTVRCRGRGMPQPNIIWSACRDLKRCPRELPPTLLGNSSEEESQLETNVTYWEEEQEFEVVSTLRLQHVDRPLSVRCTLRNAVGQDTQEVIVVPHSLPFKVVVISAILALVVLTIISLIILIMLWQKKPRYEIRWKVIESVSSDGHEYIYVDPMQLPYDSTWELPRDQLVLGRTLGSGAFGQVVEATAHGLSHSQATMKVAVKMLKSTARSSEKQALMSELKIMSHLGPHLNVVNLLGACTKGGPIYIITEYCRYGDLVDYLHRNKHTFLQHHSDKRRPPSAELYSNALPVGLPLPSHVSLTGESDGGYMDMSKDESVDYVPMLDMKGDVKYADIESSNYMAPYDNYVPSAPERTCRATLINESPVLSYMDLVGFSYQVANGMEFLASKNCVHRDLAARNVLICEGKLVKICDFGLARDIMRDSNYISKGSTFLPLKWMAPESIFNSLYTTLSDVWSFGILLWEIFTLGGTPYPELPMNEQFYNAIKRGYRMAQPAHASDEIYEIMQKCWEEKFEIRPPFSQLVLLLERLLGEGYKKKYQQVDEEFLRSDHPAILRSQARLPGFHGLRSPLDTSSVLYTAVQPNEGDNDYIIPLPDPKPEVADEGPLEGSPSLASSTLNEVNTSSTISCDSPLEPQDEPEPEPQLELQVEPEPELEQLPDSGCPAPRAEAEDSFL

The assay addresses PDGFβ (Homo sapiens (Human), UniProt P09619). Nature of the assay: PDGF stimulated Ca2+ signal in vitro (PDGFβ cellular, FLIPR, NHDF-Ad). Format: cell-based. The settings on record: PDGF stimulation 10 ng/mL, intracellular calcium.
Consider `Cc1cccc(NC(=O)Nc2ccc(Oc3ccnc(-c4cc(C(=O)N5CCC[C@@H](O)C5)c[nH]4)c3)cc2)c1` (stereo in doubt) [Example 90, 1-{4-[(2-{4-[(3-hydroxypiperidin-1-yl)carbonyl]-1H-pyrrol-2-yl}pyridin-4-yl)oxy]phenyl}-3-(3-methylphenyl)urea], for which the pIC50 is 7.68.

On to `Cc1cccc(NC(=O)Nc2ccc(Oc3ccnc(-c4cc(C(=O)N5CC[C@@H](O)C5)c[nH]4)c3)cc2)c1` (stereo in doubt) [Example 91, 1-{4-[(2-{4-[(3-hydroxypyrrolidin-1-yl)carbonyl]-1H-pyrrol-2-yl}pyridin-4-yl)oxy]phenyl}-3-(3-methylphenyl)urea], for which the negative logarithm of the IC50 (pIC50) was 7.42.

For `Cc1ccoc1C(=O)Nc1cccc(Oc2ccnc(-c3cc(C(=O)NCC(O)CO)c[nH]3)c2)c1` (stereo not shown) [Example 15, N-(2,3-dihydroxypropyl)-5-(4-{3-[(3-methyl-2-furoyl)amino]phenoxy}pyridin-2-yl)-1H-pyrrole-3-carboxamide], the pIC50 is 7.14.

In the case of `Cc1ccoc1C(=O)Nc1cccc(Oc2ccnc(-c3cc(C(=O)NO)c[nH]3)c2)c1` [Example 17, N-hydroxy-5-(4-{3-[(3-methyl-2-furoyl)amino]phenoxy}pyridin-2-yl)-1H-pyrrole-3-carboxamide], the negative logarithm of the IC50 (pIC50) was 7.21.

For `Cc1ccc(F)c(NC(=O)c2cccc(Oc3ccnc(-c4cc(C(=O)O)c[nH]4)c3)c2)c1` [Example 19, 5-{4-[3-(2-Fluoro-5-methyl-phenylcarbamoyl)-phenoxy]-pyridin-2-yl}-1H-pyrrole-3-carboxylic acid], the negative-log IC50 (pIC50) was 6.87.

`Cc1ccoc1C(=O)Nc1cccc(Oc2ccnc(-c3cc(C(=O)OCC(O)CO)c[nH]3)c2)c1` (stereo not shown) [Example 21, 2,3-dihydroxypropyl 5-(4-{3-[(3-methyl-2-furoyl)amino]phenoxy}pyridin-2-yl)-1H-pyrrole-3-carboxylate]: the pIC50 is 7.41.

Take `Cc1cccc(NC(=O)c2cccc(Oc3ccnc(-c4cc(C(=O)O)c[nH]4)c3)c2)c1` [Example 22, 5-[4-(3-m-Tolylcarbamoyl-phenoxy)-pyridin-2-yl]-1H-pyrrole-3-carboxylic acid]: the pIC50 was 6.98.

Regarding `Cc1ccoc1C(=O)Nc1cccc(Oc2ccnc(-c3cc(C(=O)N=S(C)(C)=O)c[nH]3)c2)c1` [Example 30, N-[dimethyl(oxido)-lambda˜4˜-sulfanylidene]-5-(4-{3-[(3-methyl-2-furoyl)amino]phenoxy}pyridin-2-yl)-1H-pyrrole-3-carboxamide], the pIC50 is 7.03.

For the compound `Cc1ccc(F)c(NC(=O)Nc2ccc(Oc3ccnc(-c4cc(C(=O)NCCCC(=O)NCC(O)CO)c[nH]4)c3)cc2)c1` (stereo not shown) [Example 54, N-{4-[(2,3-dihydroxypropyl)amino]-4-oxobutyl}-5-{4-[4-({[(2-fluoro-5-methylphenyl)amino]carbonyl}amino)phenoxy]pyridin-2-yl}-1H-pyrrole-3-carboxamide], the pIC50 is 6.72.

Regarding `Cc1ccc(F)c(NC(=O)Nc2ccc(Oc3ccnc(-c4cc(C(=O)NCCCC(N)=O)c[nH]4)c3)cc2)c1` [Example 55, N-(4-amino-4-oxobutyl)-5-{4-[4-({[(2-fluoro-5-methylphenyl)amino]carbonyl}amino)phenoxy]pyridin-2-yl}-1H-pyrrole-3-carboxamide], the pIC50 is 7.59.

As for `Cc1cccc(NC(=O)Nc2ccc(Oc3ccnc(-c4cc(C(=O)NCC(O)CO)c[nH]4)c3)cc2)c1` (stereo not shown) [Example 92, N-(2,3-dihydroxypropyl)-5-{4-[4-({[(3-methylphenyl)amino]carbonyl}amino)phenoxy]pyridin-2-yl}-1H-pyrrole-3-carboxamide], the pIC50 is 7.41.

For the compound `CCNC(=O)c1c[nH]c(-c2cc(Oc3ccc(NC(=O)Nc4cccc(C)c4)cc3)ccn2)c1` [Example 93, N-ethyl-5-{4-[4-({[(3-methylphenyl)amino]carbonyl}amino)phenoxy]pyridin-2-yl}-1H-pyrrole-3-carboxamide], the negative-log IC50 (pIC50) was 7.85.

Regarding `Cc1ccc(F)c(NC(=O)Nc2ccc(Oc3ccnc(-c4cc(C(=O)O)c[nH]4)c3)cc2F)c1` [Example 96, 5-{4-[3-fluoro-4-({[(2-fluoro-5-methylphenyl)amino]carbonyl}amino)phenoxy]pyridin-2-yl}-1H-pyrrole-3-carboxylic acid], the pIC50 is 7.16.

Regarding `Cc1ccc(F)c(NC(=O)Nc2ccc(Oc3ccnc(-c4cc(C(=O)N=S(C)(C)=O)c[nH]4)c3)cc2)c1` [Example 101, N-[dimethyl(oxido)-lambda˜4˜-sulfanylidene]-5-{4-[4-({[(2-fluoro-5-methylphenyl)amino]carbonyl}amino)phenoxy]pyridin-2-yl}-1H-pyrrole-3-carboxamide], the pIC50 is 7.09.

As to `COC(=O)[C@@H]1CCCN1CCNC(=O)c1c[nH]c(-c2cc(Oc3ccc(NC(=O)Nc4cc(C)ccc4F)cc3)ccn2)c1` [Example 102, methyl (2S)-1-(2-{[(5-{4-[4-({[(2-fluoro-5-methylphenyl)amino]carbonyl}amino)phenoxy]pyridin-2-yl}-1H-pyrrol-3-yl)carbonyl]amino}ethyl)pyrrolidine-2-carboxylate], the pIC50 was 8.10.

Take `Cc1ccc(F)c(NC(=O)Nc2ccc(Oc3ccnc(-c4cc(C(=O)NO)c[nH]4)c3)cc2)c1` [Example 108, 5-{4-[4-({[(2-fluoro-5-methylphenyl)amino]carbonyl}amino)phenoxy]pyridin-2-yl}-N-hydroxy-1H-pyrrole-3-carboxamide]: the pIC50 is 7.37.

Consider `Cc1ccc(F)c(NC(=O)Nc2ccc(Oc3ccnc(-c4cc(C(=O)NCCCO)c[nH]4)c3)cc2)c1` [Example 110, 5-{4-[4-({[(2-fluoro-5-methylphenyl)amino]carbonyl}amino)phenoxy]pyridin-2-yl}-N-(3-hydroxypropyl)-1H-pyrrole-3-carboxamide], for which the pIC50 was 7.49.

As to `Cc1cccc(NC(=O)Nc2ccc(Oc3ccnc(-c4cc(C(=O)O)c[nH]4)c3)cc2)c1` [Example 115, 5-{4-[4-({[(3-methylphenyl)amino]carbonyl}amino)phenoxy]pyridin-2-yl}-1H-pyrrole-3-carboxylic acid], the pIC50 is 7.36.

As for `O=C(Nc1ccc(Oc2ccnc(-c3cc(C(=O)O)c[nH]3)c2)cc1)Nc1ccc(Cl)c(C(F)(F)F)c1` [Example 121, 5-(4-{4-[({[4-chloro-3-(trifluoromethyl)phenyl]amino}carbonyl)amino]phenoxy}pyridin-2-yl)-1H-pyrrole-3-carboxylic acid], the pIC50 is 6.99.

As to `Cc1ccc(F)c(NC(=O)Nc2ccc(Oc3ccnc(-c4csc(C(=O)O)c4)c3)cc2)c1` [Example 123, 4-{4-[4-({[(2-fluoro-5-methylphenyl)amino]carbonyl}amino)phenoxy]pyridin-2-yl}thiophene-2-carboxylic acid], the pIC50 was 7.07.

With `Cc1ccc(F)c(NC(=O)Nc2ccc(Oc3ccnc(-c4cc(C(=O)NCC(O)CO)c[nH]4)c3)cc2)c1` (stereo not shown) [Example 127, N-(2,3-dihydroxypropyl)-5-{4-[4-({[(2-fluoro-5-methylphenyl)amino]carbonyl}amino)phenoxy]pyridin-2-yl}-1H-pyrrole-3-carboxamide], the pIC50 was 7.04.

For `Cc1ccc(F)c(NC(=O)Nc2ccc(Oc3ccnc(-c4cc(C(=O)OCC(O)CO)c[nH]4)c3)cc2)c1` (stereo not shown) [Example 130, 2,3-dihydroxypropyl 5-{4-[4-({[(2-fluoro-5-methylphenyl)amino]carbonyl}amino)phenoxy]pyridin-2-yl}-1H-pyrrole-3-carboxylate], the pIC50 is 7.49.
